How the values were obtained:
hCA I = hCA I (Homo sapiens, UniProt P00915); assay: Stopped flow CO2 hydrase assay
SR = assay: NCI-60 single-dose antiproliferative assay (SRB); type: cell-based; conditions: Homo sapiens, 10 μM single dose, Leukemia, read-out: Cell Growth inhibition Percent
In short: (§1)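 Cells grown in RPMI 1640 with 5% FBS and 2 mM L-glutamine were plated, left 24 h at 37 °C, then exposed to compound at a single 10 µM final concentration for 48 h. Adherent cells were TCA-fixed, SRB-stained and read at 515 nm; growth was expressed relative to time-zero and untreated controls.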

LOX IMVI = assay: NCI-60 single-dose antiproliferative assay (SRB); type: cell-based; conditions: Homo sapiens, 10 μM single dose, Melanoma, read-out: Cell Growth inhibition Percent
In short: as §1

KM12 = assay: NCI-60 single-dose antiproliferative assay (SRB); type: cell-based; conditions: Homo sapiens; 10 μM single dose; KM12, Colon cancer; read-out: Cell Growth inhibition Percent
In short: (§2)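 Readout is sulforhodamine B absorbance at 515 nm after TCA fixation, converted to percent growth versus time-zero (Tz) and control (C) plates and reported as GI%. Compounds were tested once at 10 µM for 48 h in RPMI 1640 containing 5% FBS.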

SNB-75 = assay: NCI-60 single-dose antiproliferative assay (SRB); type: cell-based; conditions: Homo sapiens; 10 μM single dose; SNB-75, CNS cancer; read-out: Cell Growth inhibition Percent
In short: as §1

NCI-H23 = assay: NCI-60 single-dose antiproliferative assay (SRB); type: cell-based; conditions: Homo sapiens; 10 μM single dose; NCI-H23, Non-small cell lung cancer; read-out: Cell Growth inhibition Percent
In short: as §2

MDA-MB-231/ATCC = assay: NCI-60 single-dose antiproliferative assay (SRB); type: cell-based; conditions: Homo sapiens, 10 μM single dose, Breast cancer, read-out: Cell Growth inhibition Percent
In short: as §1

CAKI-1 = assay: NCI-60 single-dose antiproliferative assay (SRB); type: cell-based; conditions: Homo sapiens; 10 μM single dose; CAKI-1, Renal cancer; read-out: Cell Growth inhibition Percent
In short: as §1

MCF7 = assay: NCI-60 single-dose antiproliferative assay (SRB); type: cell-based; conditions: Homo sapiens; 10 μM single dose; MCF7, Breast cancer; read-out: Cell Growth inhibition Percent
In short: as §1

OVCAR-4 = assay: NCI-60 single-dose antiproliferative assay (SRB); type: cell-based; conditions: Homo sapiens; 10 μM single dose; OVCAR-4, Ovarian Cancer; read-out: Cell Growth inhibition Percent
In short: as §1

EKVX = assay: NCI-60 single-dose antiproliferative assay (SRB); type: cell-based; conditions: Homo sapiens, 10 μM single dose, Non-small cell lung cancer, read-out: Cell Growth inhibition Percent
In short: as §1

HOP-92 = assay: NCI-60 single-dose antiproliferative assay (SRB); type: cell-based; conditions: Homo sapiens; 10 μM single dose; HOP-92, Non-small cell lung cancer; read-out: Cell Growth inhibition Percent
In short: as §2

SF-268 = assay: NCI-60 single-dose antiproliferative assay (SRB); type: cell-based; conditions: Homo sapiens; 10 μM single dose; SF-268, CNS cancer; read-out: Cell Growth inhibition Percent
In short: as §1

PC-3 = assay: NCI-60 single-dose antiproliferative assay (SRB); type: cell-based; conditions: Homo sapiens; 10 μM single dose; PC-3, Prostate cancer; read-out: Cell Growth inhibition Percent
In short: as §1

hCA XII = hCA XII (Homo sapiens, UniProt O43570); assay: Stopped flow CO2 hydrase assay
NCI 60 cancer cell lines = assay: NCI-60 single-dose antiproliferative assay, mean over panel; type: cell-based; conditions: Homo sapiens; 10 μM single dose; mean over all NCI panel cell lines; read-out: MEAN % Growth inhibition
Method: From the newly synthesized compounds, eleven compounds (4c, 4d, 5, 9a, 9b, 11a, 11b, 13b, 13c, 15b, and 15c) were selected by the National Cancer Institute (NCI) Developmental Therapeutics Program (DTP), Bethesda, Maryland, USA for the in vitro anti-proliferative activity evaluation. The selected compounds were examined at 10 μM dose against the NCI 60-cell line panel. This panel consists of nine cell line groups of leukemia, non-small cell lung carcinoma (NSCLC), melanoma, colon, CNS, ovarian, renal, prostate, and breast cancers. The results are reported as mean-graph of the percent growth relative to control and presented as percentage growth inhibition (GI%), furthermore, mean GI% of each compound over all panel cell lines was calculated (Table 1; Additional file 1; S3: In vitro biological activity).
From the newly synthesized compounds, eleven compounds were selected by the National Cancer Institute (NCI) Developmental Therapeutics Program (DTP), Bethesda, Maryland, USA for the in vitro anti-proliferative activity evaluation (For further details see supplementary materials).
NCI In-vitro Cancer Screening is a two-phase procedure that starts with the assessment of all compounds against the sixty NCI cell line panel depicting leukemia, NSCLC, CNS cancer, melanoma, prostate cancer, breast cancer, renal cancer, colon cancer and ovarian cancer cell lines at a single point of 10μM. The output from the single-dose screen is reportable as a mean graph.
The human tumor cell lines of the cancer screening panel were grown in RPMI 1640 medium containing 5% fetal bovine serum and 2 mM L-glutamine. For a typical screening experiment, cells were inoculated into 96 well microtiter plates in […] at plating densities ranging from 5000 to 40,000 cells/well depending on the doubling time of individual cell lines. After cell inoculation, the microtiter plates were incubated at 37 °C, 5% CO2, 95% air and 100% relative humidity for 24 h prior to addition of experimental drugs. After 24 h, two plates of each cell line were fixed in situ with trichloroacetic acid (TCA), to represent a measurement of the cell population for each cell line at the time of drug addition (Tz). Experimental drugs were solubilized in dimethyl sulfoxide at 400-fold the desired final maximum test concentration and stored frozen prior to use. At the time of drug addition, an aliquot of frozen concentrate was thawed and diluted to twice the desired final maximum test concentration with complete medium containing 50 µg/ml gentamicin. Aliquot of 100 µl of the drug dilution was added to the appropriate microtiter wells already containing 100 µl of medium, resulting in the required final drug concentration (10 µM). Triplicate wells were prepared for each individual dose. Following drug addition, the plates were incubated for an additional 48 h at 37 °C, 5% CO2, 95% air, and 100% relative humidity. For adherent cells, the assay was terminated by the addition of cold TCA. Cells were fixed in situ by the gentle addition of 50 µl of cold 50% (w/v) TCA (final concentration, 10% TCA) and incubated for 60 min at 4 °C. The supernatant was discarded, and the plates were washed five times with tap water and air dried. Sulforhodamine B (SRB) solution (100 µl) at 0.4% (w/v) in 1% acetic acid was added to each well, and plates were incubated for 10 min at room temperature. After staining, unbound dye was removed by washing five times with 1% acetic acid and the plates were air dried. Bound stain was subsequently solubilized with 10 mM trizma base, and the absorbance was read on an automated plate reader at a wavelength of 515 nm. For suspension cells, the methodology was the same except that the assay was terminated by fixing settled cells at the bottom of the wells by gently adding 50 µl of 80% TCA (final concentration, 16% TCA). […]

UO-31 = assay: NCI-60 single-dose antiproliferative assay (SRB); type: cell-based, human; conditions: Homo sapiens, UO-31, 10 μM single dose; UO-31, Renal cancer; read-out: Cell Growth inhibition Percent
In short: as §1

hCA II = hCA II (Homo sapiens, UniProt P00918); assay: Stopped flow CO2 hydrase assay

Chain of hCA I (P00915 whole entry): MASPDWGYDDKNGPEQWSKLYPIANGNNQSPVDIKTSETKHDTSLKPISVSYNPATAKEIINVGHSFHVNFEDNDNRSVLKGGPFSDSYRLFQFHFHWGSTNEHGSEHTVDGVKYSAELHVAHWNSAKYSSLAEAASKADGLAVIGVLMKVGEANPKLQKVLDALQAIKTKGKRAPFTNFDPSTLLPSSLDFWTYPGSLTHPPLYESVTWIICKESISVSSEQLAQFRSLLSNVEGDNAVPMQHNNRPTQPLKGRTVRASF
Chain of hCA XII (O43570 25-354): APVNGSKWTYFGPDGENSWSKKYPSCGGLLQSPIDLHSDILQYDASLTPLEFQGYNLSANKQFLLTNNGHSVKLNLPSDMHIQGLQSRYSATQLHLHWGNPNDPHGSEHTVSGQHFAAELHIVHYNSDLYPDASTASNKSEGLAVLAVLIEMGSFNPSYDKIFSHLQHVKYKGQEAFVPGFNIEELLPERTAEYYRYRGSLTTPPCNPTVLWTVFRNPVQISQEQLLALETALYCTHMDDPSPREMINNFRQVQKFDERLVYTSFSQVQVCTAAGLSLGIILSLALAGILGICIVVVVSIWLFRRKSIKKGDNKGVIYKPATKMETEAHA

Ki (hCA I): > 10 µM | melting point: > 300 °C | Ki (hCA XII): > 10 µM | Ki (hCA II): > 10 µM
Compound: O=C1Nc2ccccc2C1=CNc1ccc(C(=O)Nc2ccc(S(=O)(=O)Nc3ncccn3)cc2)cc1 [Compound 9b, 4-{[(2-Oxoindolin-3-ylidene)methyl]amino}-N-{4-[N-(pyrimidin-2-yl)sulfamoyl]phenyl}benzamide]
inhibition at 10 µM (SR): 9.02% | inhibition at 10 µM (LOX IMVI): 7.22% | inhibition at 10 µM (KM12): 43.9% | inhibition at 10 µM (SNB-75): 31.3% | inhibition at 10 µM (NCI-H23): 9.28% | inhibition at 10 µM (MDA-MB-231/ATCC): 3.83% | inhibition at 10 µM (CAKI-1): 27.6% | inhibition at 10 µM (MCF7): 4.97% | inhibition at 10 µM (OVCAR-4): 7.67% | inhibition at 10 µM (EKVX): 38.5% | inhibition at 10 µM (HOP-92): 4.65% | inhibition at 10 µM (SF-268): 3.48% | inhibition at 10 µM (PC-3): 7.1% | inhibition at 10 µM (NCI 60 cancer cell lines): 2.55% | inhibition at 10 µM (UO-31): 43.7%

Reference: publication PMC10353187, “Discovery of a new potent oxindole multi-kinase inhibitor among a series of designed 3-alkenyl-oxindoles with ancillary carbonic anhydrase inhibitory activity as antiproliferative agents” (BMC Chemistry, 2023)
